This note sets out measurements from patent US20210147801A1, “METHODS FOR INCREASING EXPANSION AND IMMUNOSUPPRESSIVE CAPACITY OF A POPULATION OF CD8+CD45RCLOW/- TREGS” (INSERM (INSTITUT NATIONAL DE LA SANTÉ ET DE LA RECHERCHE …, priority 2017, published 2021).

What all share (format): cell-based, human
Experiment [1] has as its system CD8+CD45RClow/- Tregs. Description: Expansion of CD8+CD45RClow/- Tregs with anti-CD3/anti-CD28 in medium supplemented with immunosuppressive drugs (14 days). The settings on record: rapamycin 45 ng/ml, methylprednisolone 500 pg/ml, mycophenolate mofetil 1 μg/ml; for expansion yield: Example 3, FIG. 3, cyclosporine A 45 ng/ml, tacrolimus 2 ng/ml, vs no IS drug.
Experimental: CD8^+CD45RC^low/− Tregs from fresh or thawed PBMCs were seeded at 3×10^5/ml in RPMI1640 medium supplemented with 10% AB serum, Penicillin (100 U/ml), Streptomycin (0.1 mg/ml), Sodium pyruvate (1 mM), Glutamine (2 mM), Hepes Buffer (1 mM), non-essential amino acids (1×), IL-2 (1000 U/ml) and IL-15 (10 ng/ml), and were stimulated with coated anti-CD3 mAb (1 μg/ml), soluble anti-CD28 mAb (1 μg/ml) and/or allogeneic APCs at 1:4 Tregs: APCs ratio. At day 7, expanded cells were diluted at 1.5×10^5/ml and stimulated again with coated anti-CD3 and soluble anti-CD28 mAbs (1 μg/ml each). […] At day 14, expanded Tregs were washed with PBS before use. Suppressive activity was tested on CD8^+CD45RC^low/− Tregs expanded more than 10 fold in 7 days. For long-term expansion, CD8^+CD45RC^low/− Tregs and CD4^+CD25^highCD127^low/− Tregs were stimulated again with coated anti-CD3 (1 μg/ml) and soluble anti-CD28 MAbs (1 μg/ml) at days 14 and 21 and IL-2 and IL-15 cytokines were freshly added every 2 days from day 7 to 28. Culture medium 1× cytokines (IL-2 (1000 U/ml) and IL-15 (10 ng/ml)) was added when required.
The subject of experiment [2] is CD8+CD45RClow/- Tregs. Description: Tregs associated markers expression at day 21 after 7 d culture in IS-supplemented medium. The settings on record: Example 4, FIG. 4, tacrolimus 2 ng/ml, compared to drug free medium. Here is the method: Methods: Fresh blood was taken from 1 healthy volunteer, PBMCs were isolated by Ficoll centrifugation, washed in PBS, adjusted at 2×10^8 PBMC/ml in PBS-FCS-EDTA and were incubated with anti-CD3-PeCy7, anti CD4-PerCPCy5.5 and anti-CD45RC FITC 30′ 4° C. Cells were washed with PBS-FCS-EDTA, filtered on 60 μm tissue, labeled with Dapi and FACS Aria sorted on lymphocyte morphology, exclusion of doublet cells, and DAPI-CD3^+CD4^−CD45RC^low/− expression. […] At days 7, Tregs were harvested, counted, washed, and plated at 5×10^5Tregs/well/3 ml in p6 plate previously coated with anti-CD3 (OKT3 clone, 1 μg/ml in PBS, 1 ml/well, 1 h at 37° C. then washed with PBS 3 times), in RPMI1640 medium supplemented with 10% AB serum, Penicillin (100 U/ml), Streptomycin (0.1 mg/ml), Sodium pyruvate (1 mM), Glutamine (2 mM), Hepes Buffer (1 mM), non-essential amino acids (1×), IL-2 (1000 U/ml) and IL-15 (10 ng/ml), anti-CD28 mAbs (clone CD28.2, soluble, 1 μg/ml). […] Tregs were analyzed at day 21 for survival/expansion yield and phenotype.

For experiment [3], the system named is CD8+CD45RClow/- Tregs. The experiment in a line: Suppressive activity of drug-expanded Tregs on CD4+CD25- effector T cells stimulated with allogeneic APCs (CFSE). The note with it: for suppressive activity of Tregs: Example 3, FIG. 3, Tregs harvested at day 14, 1:1:1 Tregs:Teff:APCs, same drug concentrations, vs no IS drug. Here is the method:
CD8^+CD45RC^low/− Tregs from fresh or thawed PBMCs were seeded at 3×10^5/ml in RPMI1640 medium supplemented with 10% AB serum, Penicillin (100 U/ml), Streptomycin (0.1 mg/ml), Sodium pyruvate (1 mM), Glutamine (2 mM), Hepes Buffer (1 mM), non-essential amino acids (1×), IL-2 (1000 U/ml) and IL-15 (10 ng/ml), and were stimulated with coated anti-CD3 mAb (1 μg/ml), soluble anti-CD28 mAb (1 μg/ml) and/or allogeneic APCs at 1:4 Tregs: APCs ratio. At day 7, expanded cells were diluted at 1.5×10^5/ml and stimulated again with coated anti-CD3 and soluble anti-CD28 mAbs (1 μg/ml each). […] At day 14, expanded Tregs were washed with PBS before use. Suppressive activity was tested on CD8^+CD45RC^low/− Tregs expanded more than 10 fold in […]. For long-term expansion, CD8^+CD45RC^low/− Tregs and CD4^+CD25^highCD127^low/− Tregs were stimulated again with coated anti-CD3 (1 μg/ml) and soluble anti-CD28 MAbs (1 μg/ml) at days 14 and 21 and IL-2 and IL-15 cytokines were freshly added every 2 days from day 7 to 28. Culture medium 1× cytokines (IL-2 (1000 U/ml) and IL-15 (10 ng/ml)) was added when required.
We tested the effect of immunosuppressive drugs (at concentrations used in the clinic) on CD8^+CD45RC^low/− Tregs survival 7 days following the 14 days expansion (FIG. 1) or on the expansion yield and suppressive function score of CD8^+CD45RC^low/− Tregs during the 14 days expansion (FIG. 3D).
Methods: Fresh blood was taken from 1 healthy volunteer, PBMCs were isolated by Ficoll centrifugation, washed in PBS, adjusted at 2×10^8 PBMC/ml in PBS-FCS-EDTA and were incubated with anti-CD3-PeCy7, anti CD4-PerCPCy5.5 and anti-CD45RC FITC 30′ 4° C. Cells were washed with PBS-FCS-EDTA, filtered on 60 μm tissue, labeled with Dapi and FACS Aria sorted on lymphocyte morphology, exclusion of doublet cells, and DAPI-CD3^+CD4^−CD45RC^low/− expression. […] At days 10 and 12, cytokines were freshly added. Expanded Tregs were harvested at day 14 for suppressive activity assessment. […] After 5 days culture, Teff proliferation was analyzed by CFSE analysis in DAPI^−CD4±CD3^+ T cells.

`C=CC[C@@H]1/C=C(\C)C[C@H](C)C[C@H](OC)[C@H]2O[C@@](O)(C(=O)C(=O)N3CCCC[C@H]3C(=O)O[C@H](/C(C)=C/[C@@H]3CC[C@@H](O)[C@H](OC)C3)[C@H](C)[C@@H](O)CC1=O)[C@H](C)C[C@@H]2OC` [Tacrolimus, tacrolimus]: in experiment [1], the expansion yield entry is recorded as “improved”. For the same compound, in experiment [2], the “IFNg expression by Tregs” value was “significantly decreased”. Further, the “suppressive activity of Tregs” value in experiment [3] is “improved”.
`COc1c(C)c2c(c(O)c1C/C=C(\C)CCC(=O)OCCN1CCOCC1)C(=O)OC2` [mycophenolate mofetil]: the expansion fold result in experiment [1] (Example 1, FIG. 3D, drugs added alone during 14 days or subsequently (day 0-7, then day 7-14), vs no immunosuppressor (NT)) is recorded as “inhibited the expansion by rapamycin”. In experiment [1], the expansion yield result is “deleterious”. In addition, the suppression capacity result in experiment [3] (Example 1, FIG. 3D, Tregs expanded 14 days with drugs alone or subsequently, vs no immunosuppressor (NT)) is given as “decreased suppression”. In experiment [3], the “suppressive activity of Tregs” value is recorded as “deleterious”.
